# Laboratory results: patent US8268961B2, “Antibacterial peptides and analogues thereof” (Universita Degli Studi di Siena, priority 2004, dated 2012)
# “Also recorded” adds a separate entry of the source. Positions of bridges follow the written chain, without caps; N, C: chain ends. Chains are numbered I, II in the order given. No end group written: not given here.
# Test: LPS binding by Plasmon Surface Resonance (Biacore)
# Conditions: M6 immobilised on BIACORE sensorchip
# Experimental: FIG. 11. Binding analysis between MAP M6 peptide and LPS in BIACORE. […] On the y-axis are shown the Units of Response derived from the binding between LPS and M6 as a function of time expressed in seconds (on the x-axis)
# The ability of MAP peptides to perforate the bacterial membrane was evaluated measuring the activity of cytoplasmatic beta-galactosidase (24) in surpernatants of E. coli strain ML-35 incubated with the peptide and using p-nitrophenyl-β-D-galactopyranoside (pNPG) as a substrate. pNPG is digested by beta-galactosidase, therefore releasing p-nitro-phenolate detectable by spectrophotometric reading at 420 nm (FIG. 10). […] The activity of dendrimeric peptides against the inner membrane was evaluated at concentrations of 16, 32 and 64 μg/ml. All dendrimeric peptides permeabilized bacterial inner membrane at 16 μg/ml (FIG. 9). Permeabilization occurred after a lag of less than 1 minute, and the rate of permeabilization depended on peptide concentration (not shown). Moreover, the ability of the M6 MAP peptide to bind the bacterial lipopolysaccharide (LPS) was assayed by Plasmon Surface Resonance in a Biacore 1000 instrument (FIG. 11) using a protocol perfected by the authors (26).
substance,measurement,value
"I: QKKIRVRLSAKKA-OH / II: QKKIRVRLSAK / III: QKKIRVRLSA / IV: QKKIRVRLSA (amide I:11-IV:C, I:12-II:C, II:11-III:C) [M6, QKKIRVRLSA]","Binding to bacterial lipopolysaccharide (LPS), sensorgram",effectively binds; also recorded: rapid binding
